12 compounds from PubChem BioAssay (NCI) can be followed below.

Some test systems named below: COLO 205 colon; U251 CNS; NCI-H460 lung; MDA-MB-435; SK-MEL-5 melanoma; SK-OV-3 ovarian; HCT-15 colon; MDA-N; LOX IMVI melanoma; EKVX NSCLC; HT29 colon; RPMI-8226 leukemia; UO-31 renal.
Holding throughout (experiment): inhibition of tumour cell growth, NCI panel, 48 h

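These data come from cells grown in 96-well plates and exposed to compound for 48 hours at five concentrations. TGI denotes the concentration required for complete inhibition of growth.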

For the compound `CCOC(=O)CCC1(CCC(=O)OCC)CCCCCCCCC(CCC(=O)OCC)(CCC(=O)OCC)C(=O)C1=O`, the TGI with COLO 205 colon, in the assay with U251 CNS, with NCI-H460 lung, with MDA-MB-435, with SK-MEL-5 melanoma and in the assay with SK-OV-3 ovarian was above 100 µM each time. Further, the TGI in the assay on HCT-15 colon, in the assay with MDA-N, with LOX IMVI melanoma, with EKVX NSCLC and in the assay with HT29 colon was above 100 µM each time.

For the compound `CC(=O)O[C@]12CCCCCC1C1(O)C(O)CCCCC12` (stereo partly specified), the TGI with COLO 205 colon, in the assay with RPMI-8226 leukemia, in the assay with U251 CNS, in the assay with NCI-H460 lung, in the assay on SK-MEL-5 melanoma and in the assay with UO-31 renal was above 100 µM throughout. In addition, the TGI with SK-OV-3 ovarian, in the assay with HCT-15 colon, with LOX IMVI melanoma, in the assay with EKVX NSCLC and in the assay with HT29 colon was above 100 µM throughout.

On to `COc1ccc(CNc2nc(NC3CCCCC3)nc(NC3CCCCC3)n2)cc1`, for which the TGI with COLO 205 colon is 20.9 µM; in the assay on U251 CNS, 84.7 µM; in the assay on NCI-H460 lung, 15.6 µM; in the assay with MDA-MB-435, above 100 µM; in the assay with SK-MEL-5 melanoma, 14.4 µM; in the assay with UO-31 renal, 67.2 µM. The TGI in the assay on SK-OV-3 ovarian was above 100 µM; in the assay with HCT-15 colon, 5.5 µM; in the assay on LOX IMVI melanoma, 4.44 µM; with EKVX NSCLC, above 100 µM; with HT29 colon it was above 100 µM.

On to `CC(=O)O[C@@]12CO[C@@H]1CC(O)[C@@]1(C)C(=O)[C@H](O)C3=C(C)C(O)C[C@@](O)(C(OC(=O)c4ccccc4)C12)C3(C)C` (stereo partly specified), for which the TGI was 6.72 µM in the assay with COLO 205 colon; above 100 µM in the assay with RPMI-8226 leukemia; 18.1 µM in the assay on U251 CNS; above 100 µM in the assay on NCI-H460 lung; 0.413 µM with MDA-MB-435; above 100 µM in the assay with SK-MEL-5 melanoma. The TGI in the assay with UO-31 renal was above 100 µM; with HCT-15 colon, above 100 µM; with LOX IMVI melanoma, above 100 µM; in the assay on EKVX NSCLC, above 100 µM; in the assay with HT29 colon, 23.8 µM.

In the case of `Nc1c(S(=O)(=O)c2ccccc2)c2nc3ccccc3nc2n2c1nc1ccccc12`, the TGI with COLO 205 colon was above 100 µM; in the assay with RPMI-8226 leukemia, above 100 µM; with U251 CNS, above 47.5 µM; in the assay on NCI-H460 lung, above 100 µM; in the assay on SK-MEL-5 melanoma, above 66.2 µM; with UO-31 renal, above 100 µM. Also, the TGI in the assay with SK-OV-3 ovarian, in the assay on HCT-15 colon, in the assay on LOX IMVI melanoma, with EKVX NSCLC and in the assay with HT29 colon was above 100 µM each time.

In the case of `CCOC(=O)c1c(OCC)[nH]c(=O)c(C(c2cccs2)c2c(O)c(C(=O)OCC)c(OCC)[nH]c2=O)c1O`, the TGI with COLO 205 colon was 40.7 µM; with RPMI-8226 leukemia, above 100 µM; with U251 CNS, 30.3 µM; with NCI-H460 lung it was 39.8 µM; with MDA-MB-435, 32.4 µM; in the assay on SK-MEL-5 melanoma, 25.5 µM. For the same compound, the TGI amounted to 26.7 µM in the assay on UO-31 renal; 37.5 µM in the assay on HCT-15 colon; 30.7 µM in the assay with LOX IMVI melanoma; 32.7 µM with EKVX NSCLC; 35.3 µM in the assay with HT29 colon.

On to `CCOC(=O)c1ccc(-c2ccc(Cl)cc2)[nH]1`, for which the TGI with U251 CNS, with NCI-H460 lung, in the assay with MDA-MB-435, in the assay on SK-MEL-5 melanoma, with UO-31 renal and with SK-OV-3 ovarian was above 10 µM in each case. The TGI in the assay on HCT-15 colon, in the assay on MDA-N, in the assay with EKVX NSCLC and with HT29 colon was above 10 µM throughout.

Consider `C=C1CC[C@H]2C(=O)OC(c3ccoc3)C[C@]2(C)C/C=C\C=C/1C(=O)OC` (stereo partly specified), for which the TGI in the assay with COLO 205 colon, in the assay with U251 CNS, with NCI-H460 lung, in the assay with SK-MEL-5 melanoma, with UO-31 renal and in the assay with SK-OV-3 ovarian was above 25 µM each time. The TGI in the assay with HCT-15 colon, in the assay with MDA-N, in the assay on LOX IMVI melanoma, in the assay with EKVX NSCLC and in the assay on HT29 colon was above 25 µM each time.

In the case of `N#Cc1cc2c(cc1Cl)Sc1nnc(Nc3ccccc3)n1S2(=O)=O`, the TGI in the assay on COLO 205 colon was 4.75 µM; in the assay with RPMI-8226 leukemia it was 9.17 µM; with U251 CNS it was 3.6 µM; in the assay on NCI-H460 lung, 9.22 µM; in the assay on MDA-MB-435, 4.8 µM; in the assay with SK-MEL-5 melanoma, 6.84 µM. For the same compound, the TGI came out at 3.89 µM with UO-31 renal; 17.3 µM in the assay on SK-OV-3 ovarian; 5.61 µM with HCT-15 colon; 3.75 µM with LOX IMVI melanoma; 7.95 µM in the assay on EKVX NSCLC; 6.91 µM with HT29 colon.

For `O=Cc1ccc(-c2ccc(-c3ccc(CO)s3)o2)s1`, the TGI is above 85.7 µM with COLO 205 colon; above 42.1 µM in the assay on U251 CNS; 3.21 µM in the assay on NCI-H460 lung; above 49.3 µM in the assay on MDA-MB-435; 17.7 µM in the assay on SK-MEL-5 melanoma; above 71.3 µM in the assay with UO-31 renal. In addition, the TGI in the assay on SK-OV-3 ovarian was 78.8 µM; in the assay on HCT-15 colon it was above 100 µM; with LOX IMVI melanoma, 16.2 µM; in the assay with EKVX NSCLC it was above 69.1 µM; with HT29 colon it was above 53.2 µM.

Consider `COc1cc2nc(-c3cccs3)nc(Cl)c2cc1OC`, for which the TGI in the assay with COLO 205 colon, with U251 CNS, in the assay on NCI-H460 lung, in the assay on MDA-MB-435, in the assay with SK-MEL-5 melanoma and in the assay with UO-31 renal was above 100 µM each time. For the same compound, the TGI in the assay with SK-OV-3 ovarian, in the assay with HCT-15 colon, in the assay on EKVX NSCLC and in the assay with HT29 colon was above 100 µM in each case.

With `COC(=O)N[C@H](C(=O)NC(OCc1ccccc1)C1COC(C)(C)O1)C(C)O[Si](C)(C)C(C)(C)C` (stereo partly specified), the TGI in the assay on COLO 205 colon was above 100 µM; with RPMI-8226 leukemia, above 100 µM; in the assay on U251 CNS, above 100 µM; in the assay on NCI-H460 lung, above 100 µM; in the assay on SK-MEL-5 melanoma, 65.8 µM; in the assay with UO-31 renal it was above 100 µM. Moreover, the TGI in the assay with SK-OV-3 ovarian, in the assay with HCT-15 colon, in the assay with MDA-N, in the assay with EKVX NSCLC and with HT29 colon was above 100 µM throughout.
